Reference: US20250230226A1, “PLXDC1/PLXDC2 ACTIVATORS AND THEIR USE IN THE TREATMENT OF BLOOD VESSEL DISORDERS” (THE REGENTS OF THE UNIVERSITY OF CALIFORNIA, priority 2019, published 2025)

Columns and labels:
[1] = test system: CT26.CL25 colon cancer tumor endothelial cells; experiment: Colon CT26 ex vivo model of tumor angiogenesis; format: cell-based, mouse; conditions: for 48 hrs (morphology observations after 48 hours): Conc. 40 μm; for cytotoxicity at 40 µM: Mus musculus, Endothelial cell, 48 h, read-out: Cell death
In short: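 Cell death was read by FDA (live, green) and PI (dead, red) fluorescence imaging, e.g. 48 h after treatment. Treatment began once endothelial cells had grown out of Matrigel-embedded CT26 colon tumor fragments, typically after 7 days of culture in endothelial growth medium at 37 °C.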

[2] = test system: LL/2 lung cancer tumor endothelial cells; experiment: Lung LL2 ex vivo model of tumor angiogenesis; format: cell-based, mouse; conditions: for 48 hrs (morphology observations): LL/2 tumor endothelial cells; for Cell death: drug treatment for two days, ratio of red area to total endothelial cell area; for cytotoxicity at 40 µM: Mus musculus, Endothelial cell, 48 h, read-out: Cell death
In short: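 Live/dead imaging with FDA and PI, taken e.g. 48 h post-drug under fixed channel settings, measures treatment effects on endothelial cells sprouting from Lewis lung tumor explants. Explants were seeded in Matrigel drops and grown ~4 days in endothelial growth medium, 37 °C, 5% CO2, before dosing.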

| Compound | 48 hrs (morphology observations after 48 hours) [1] | cytotoxicity at 40 µM [1] [%] | 48 hrs (morphology observations) ([2]; 40 μm) | Cell death ([2]; 40 μm) [%] | cytotoxicity at 40 µM [2] [%] | 48 hrs (morphology observations) ([2]; 20 μm) | Cell death ([2]; 20 μm) [%] |
| --- | --- | --- | --- | --- | --- | --- | --- |
| CCCCOc1ccc(S(=O)(=O)c2cnc3ccc(C(=O)OCC)cc3c2N2CCC(N3CCCCC3)CC2)cc1 [Compound 157] | **** (100% of endothelial cells vesicularize in cell shape and look flattened in morphology (indicating disintegration of the cell body)) | 60 | *** (more than 50% but less than 100% of endothelial cells vesicularize in cell shape) | 100 |  |  |  |
| CCCCOc1ccc(S(=O)(=O)c2cnc3ccc(C(=O)OCC)cc3c2N2CCCN(C)CC2)cc1 [Compound 158] | **** (100% of endothelial cells vesicularize in cell shape and look flattened in morphology (indicating disintegration of the cell body)) | 100 | **** (100% of endothelial cells vesicularize in cell shape and look flattened in morphology (indicating disintegration of the cell body)) |  | 100 |  |  |
| CCCCOc1ccc(S(=O)(=O)c2cnc3ccc(SC)cc3c2N2CCC(N3CCCCC3)CC2)cc1 [Compound 159] | **** (100% of endothelial cells vesicularize in cell shape and look flattened in morphology (indicating disintegration of the cell body)) | 100 | **** (100% of endothelial cells vesicularize in cell shape and look flattened in morphology (indicating disintegration of the cell body)) |  | 100 |  |  |
| CCCCOc1ccc(S(=O)(=O)c2cnc3ccc(SC)cc3c2N2CCCN(C)CC2)cc1 [Compound 160] | **** (100% of endothelial cells vesicularize in cell shape and look flattened in morphology (indicating disintegration of the cell body)) | 100 | **** (100% of endothelial cells vesicularize in cell shape and look flattened in morphology (indicating disintegration of the cell body)) |  | 100 |  |  |
| CCCCOc1ccc(S(=O)(=O)c2cnc3ccc(C(=O)OCC)cc3c2N2CCC(N3CCC(O)CC3)CC2)cc1 [Compound 161] | **** (100% of endothelial cells vesicularize in cell shape and look flattened in morphology (indicating disintegration of the cell body)) | 100 | **** (100% of endothelial cells vesicularize in cell shape and look flattened in morphology (indicating disintegration of the cell body)) | 90 |  |  |  |
| CCCCOc1ccc(S(=O)(=O)c2cnc3ccc(SC)cc3c2N2CCC(N3CCC(O)CC3)CC2)cc1 [Compound 162] | *** (100% of endothelial cells vesicularize in cell shape) |  | *** (more than 50% but less than 100% of endothelial cells vesicularize in cell shape) | 70 |  |  |  |
| CCCCOc1ccc(S(=O)(=O)c2cnc3ccc([S+](C)[O-])cc3c2N2CCCN(C)CC2)cc1 (stereo not drawn) [Compound 163] | **** (100% of endothelial cells vesicularize in cell shape and look flattened in morphology (indicating disintegration of the cell body)) | 100 | **** (100% of endothelial cells vesicularize in cell shape and look flattened in morphology (indicating disintegration of the cell body)) | 95 |  |  |  |
| CCCCOc1ccc(S(=O)(=O)c2cnc3ccc(S(C)(=O)=O)cc3c2N2CCCN(C)CC2)cc1 [Compound 164] | **** (100% of endothelial cells vesicularize in cell shape and look flattened in morphology (indicating disintegration of the cell body)) | 100 | **** (100% of endothelial cells vesicularize in cell shape and look flattened in morphology (indicating disintegration of the cell body)) | 95 |  |  |  |
| CCN(CC)C(=O)c1ccc2ncc(S(=O)(=O)c3ccc(OC)cc3)c(N3CCCN(C)CC3)c2c1 [Compound 165] | 0 | 10 | * (50% or less of cells vesicularize in cell shape) |  | 10 |  |  |
| CCN(CC)CCNC(=O)c1ccc2ncc(S(=O)(=O)c3ccc(OC)cc3)c(N3CCCN(C)CC3)c2c1 [Compound 166] | *** (100% of endothelial cells vesicularize in cell shape) | 60 | 0 | 10 |  |  |  |
| CCCCOc1ccc(S(=O)(=O)c2cnc3ccc(C(=O)OCC)cc3c2N2CCSCC2)cc1 [Compound 191] | 0 | 10 |  | 30 |  |  |  |
| CCCCOc1ccc(S(=O)(=O)c2cnc3ccc(C(=O)NC(C)C)cc3c2N2CCCN(C)CC2)cc1 [Compound 192] | 0 | 10 | *** (more than 50% but less than 100% of endothelial cells vesicularize in cell shape) | 60 |  |  |  |
| CCCCOc1ccc(S(=O)(=O)c2cnc3ccc(C(=O)N(CC)CC)cc3c2N2CCC(N3CCCCC3)CC2)cc1 [Compound 201] | * (50% or less of cells vesicularize in cell shape) | 10 | 0 | 30 |  |  |  |
| CCCCOc1ccc(S(=O)(=O)c2cnc3ccc(C(=O)NCCO)cc3c2N2CCC(N3CCCCC3)CC2)cc1 [Compound 202] | 0 | 10 |  |  | 30 |  |  |
| CCCCOc1ccc(S(=O)(=O)c2cnc3ccc(SC)cc3c2N2CCCN(CCN3CCCCC3)CC2)cc1 [Compound 206] | **** (100% of endothelial cells vesicularize in cell shape and look flattened in morphology (indicating disintegration of the cell body)) | 100 |  |  |  | 0 | 30 |
| CCCCOc1ccc(S(=O)(=O)c2cnc3ccc([S+](C)[O-])cc3c2N2CCC(N3CCCC(O)C3)CC2)cc1 (stereo not drawn) [Compound 208] | 0 | 20 |  | 50 |  |  |  |
| CCCCOc1ccc(S(=O)(=O)c2cnc3ccc([S+](C)[O-])cc3c2N2CCCN(CCN3CCCCC3)CC2)cc1 (stereo not drawn) [Compound 209] | *** (100% of endothelial cells vesicularize in cell shape) | 90 | * (50% or less of cells vesicularize in cell shape) | 60 |  |  |  |
| CCCCOc1ccc(S(=O)(=O)c2cnc3ccc([S+](C)[O-])cc3c2N2CCCN(CCN3CCCC3)CC2)cc1 (stereo not drawn) [Compound 210] | *** (100% of endothelial cells vesicularize in cell shape) | 70 | 0 | 50 |  |  |  |
| CCCCOc1ccc(S(=O)(=O)c2cnc3ccc(C(=O)OCC)cc3c2N2CCC(N3CCCN(C)CC3)CC2)cc1 [Compound 211] | **** (100% of endothelial cells vesicularize in cell shape and look flattened in morphology (indicating disintegration of the cell body)) | 100 | **** (100% of endothelial cells vesicularize in cell shape and look flattened in morphology (indicating disintegration of the cell body)) |  | 100 |  |  |
| CCCCOc1ccc(S(=O)(=O)c2cnc3ccc(C(=O)OCC)cc3c2N2CCC(N3CCOCC3)CC2)cc1 [Compound 212] | 0 | 10 |  | 50 |  |  |  |
